Test results: article PMC5034043 (The Journal of Biological Chemistry, 2016)
Read-outs that look alike come from different tables or passages of the source.

System: T1, synaptosomal proteome
T1 construct: from tissue; host or cells: brain synaptosomes of male C57/B6 mice
Type: binding, mouse
Experimental: Synaptosomes were resuspended to 1 mg of protein/ml in HEPES buffer medium (in mM: 140 NaCl, 5 KCl, 5 NaHCO3, 1.2 NaH2PO4, 1 MgCl2, 10 glucose, and 10 HEPES (pH 7.4)). […] The samples were allowed to equilibrate for 5 min before being transferred to a parafilm-sealed 1-mm path length quartz cuvette. The sample was then irradiated for 20 min at a peak bandwidth of 350 nm (Rayonet RPR-3500 lamp) ∼6 cm from the light source. Non-irradiated samples were left in the dark at ambient temperature (22–25 °C) for 20 min. All remaining procedures were conducted with restricted light exposure.
To 750 μg of photolabeled or control synaptosome samples, 40 μl of 10% SDS and 2 μl of 5 mM DTT in water were added. Samples were then vortexed, heated for 10 min at 65 °C, and then briefly cooled. Final concentrations of 150 μM azide-biotin (Click Chemistry Tools), 2 mM tris(3-hydroxypropyltriazolylmethyl)amine (Sigma), 1 mM ascorbic acid (Sigma), and 1 mM CuSO4·5H2O (Sigma) were added to each sample and vortexed vigorously. The samples were left in the dark at ambient temperature (22–25 °C) for 1 h with mild agitation. Directly to each sample 4× volume chilled methanol, 1.5× chilled chloroform, and 3× chilled double distilled H2O were added. Samples were vortexed vigorously and centrifuged at 1,400 × g for 30 min at 4 °C. Both liquid layers were carefully removed, and the protein pellet was washed with 2 ml of 1:1 (v/v) chilled methanol/chloroform. Samples were centrifuged at 3,500 × g for 30 min at 4 °C. Protein pellets were briefly air-dried before further processing.
750 μg of biotin-conjugated protein sample was resuspended in 500 μl of 25 mM NH4HCO3 and 6 M urea in water. Next, 150 μl of 5% Triton X-100 in water, 50 μl of 10% SDS in water, and 1.5 μl of 0.5 M DTT were added. The samples were heated for 15 min at 65 °C. After briefly cooling, 14 μl of 0.5 M iodoacetamide in water was added, and the sample was left in the dark for 45 min. […] The supernatant was diluted to 4 ml with PBS, and 2 ml of PBS containing 100 μl of 50% streptavidin-agarose resin (Thermo Scientific) was added. Biotinylated proteins within the sample were captured over resin overnight at 4 °C with mild agitation. The resin was first washed with 6 ml of 1% SDS in PBS, and then 7 ml of 0.1 M urea in PBS followed by 10 ml of PBS. The resin underwent a final wash with 0.9 ml of 50 mM Tris-HCl and 1 mM CaCl2 in water (pH 8.0) and then resuspended in 200 μl of 50 mM Tris-HCl, 1 mM CaCl2 in water (pH 8.0), and 2 μg of porcine sequencing grade trypsin (Promega). Samples were digested overnight at 37 °C. Samples were then centrifuged at 2,000 × g for 4 min, and digest supernatant was decanted. Beads were washed in 100 μl of PBS centrifuged at 5,200 × g for 5 min, and the wash was combined with the digest supernatant. To the combined sample, trifluoroacetic acid (TFA) was added to 0.4% (v/v) or until pH <2. The sample was desalted with Oasis C18 10-mg columns (Waters) as described previously ([66]). The eluted sample was dried by speed vac and resuspended in 0.1 M HEPES buffer (pH 8.5). […] Appropriate corresponding TMTsixplex^TM-labeled samples were pooled and dried by speed vac. The combined samples were resuspended in 0.5% acetic acid in water and pH-corrected with acetic acid until pH was <2. 40 μg of protein was desalted with C18 stage tips prepared in-house and dried by speed vac.
Samples were resuspended in 10 mM KH2PO4 (pH 2.6), 30% acetonitrile (v/v) in water, and fractionated by off-line strong cation exchange chromatography prior to mass spectrometry (MS) analysis similar to as reported previously ([66]). The full synaptosome proteome control was prepared similarly without TMTsixplex^TM labeling.
All TMT samples were analyzed with three-stage mass spectrometry (MS3) TMTsixplex^TM quantification workflow as described previously ([34]).

[1] = protein A2AGI3 Neuroligin-3 (Nlgn3)
[2] = protein A2AWI7 Endophilin-B2 (Sh3glb2)
[3] = protein D3Z5T2 Armadillo repeat-containing protein 10 (Armc10)
[4] = protein E9Q3V6 Septin-2 (Sept2)
[5] = protein F7C846 Metaxin-1 (Mtx1)
[6] = protein F8WGD9 1-acyl-sn-glycerol-3-phosphate acyltransferase epsilon (Agpat5)
[7] = protein G3UYZ1 Immunoglobulin superfamily member 8 (Igsf8)
[8] = protein G5E829 Plasma membrane calcium-transporting ATPase 1 (Atp2b1)
[9] = protein O09111 NADH dehydrogenase [ubiquinone] 1 beta subcomplex subunit 11, mitochondrial (Ndufb11)
[10] = protein O35114 Lysosome membrane protein 2 (Scarb2)
[11] = protein O35526 Syntaxin-1A (Stx1a)
[12] = protein O35874 Neutral amino acid transporter A (Slc1a4)

## C#CCOCc1ccc(C2(C(F)(F)F)N=N2)cc1O [AziPm-click (1), 2-((prop-2-yn-1-yloxy)methyl)-5-(3-(trifluoromethyl)-3H-diazirin-3-yl)phenol]
B1AU25 Aifm1
  Log2( Mean 'UV/ No UV'): 4.01
  TMT Ratio Mean 'UV/ No UV': 16.13
O35633-2 Slc32a1
  Log2( Mean 'UV/ No UV'): 4.34
O35678 Mgll
  Log2( Mean 'UV/ No UV'): 4.63
  TMT Ratio Mean 'UV/ No UV': 24.71
P07724 Alb
  Log2( Mean 'UV/ No UV'): 4.39
  TMT Ratio Mean 'UV/ No UV': 20.95
P08226 Apoe
  Log2( Mean 'UV/ No UV'): 3.80
  TMT Ratio Mean 'UV/ No UV': 13.94
P17665 Cox7c
  Log2( Mean 'UV/ No UV'): 4.31
  TMT Ratio Mean 'UV/ No UV': 19.82
P19157 Gstp1
  Log2( Mean 'UV/ No UV'): 3.61
  TMT Ratio Mean 'UV/ No UV': 12.21
P23242 Gja1
  Log2( Mean 'UV/ No UV'): 3.58
  TMT Ratio Mean 'UV/ No UV': 11.95
P31648 Slc6a1
  Log2( Mean 'UV/ No UV'): 4.60
  TMT Ratio Mean 'UV/ No UV': 24.21
P35279 Rab6a
  Log2( Mean 'UV/ No UV'): 3.67
  TMT Ratio Mean 'UV/ No UV': 12.71
P40237 Cd82
  Log2( Mean 'UV/ No UV'): 3.95
  TMT Ratio Mean 'UV/ No UV': 15.49
P42125 Eci1
  Log2( Mean 'UV/ No UV'): 4.01
  TMT Ratio Mean 'UV/ No UV': 16.13
P51150 Rab7a
  Log2( Mean 'UV/ No UV'): 3.54
  TMT Ratio Mean 'UV/ No UV': 11.65
P60879-2 Snap25
  Log2( Mean 'UV/ No UV'): 4.57
P61294 Rab6b
  Log2( Mean 'UV/ No UV'): 3.78
  TMT Ratio Mean 'UV/ No UV': 13.75
P61620 Sec61a1
  Log2( Mean 'UV/ No UV'): 4.06
  TMT Ratio Mean 'UV/ No UV': 16.63
P63011 Rab3a
  Log2( Mean 'UV/ No UV'): 3.83
  TMT Ratio Mean 'UV/ No UV': 14.19
P63037 Dnaja1
  Log2( Mean 'UV/ No UV'): 3.64
  TMT Ratio Mean 'UV/ No UV': 12.46
P63213 Gng2
  Log2( Mean 'UV/ No UV'): 3.65
  TMT Ratio Mean 'UV/ No UV': 12.51
Q5ICG5 Acsl6
  Log2( Mean 'UV/ No UV'): 3.88
  TMT Ratio Mean 'UV/ No UV': 14.71
Q5SW88 Rab1
  Log2( Mean 'UV/ No UV'): 3.58
  TMT Ratio Mean 'UV/ No UV': 11.95
Q8BXV2 Bri3bp
  Log2( Mean 'UV/ No UV'): 3.89
  TMT Ratio Mean 'UV/ No UV': 14.84
Q8C3X2 Ccdc90b
  Log2( Mean 'UV/ No UV'): 4.00
  TMT Ratio Mean 'UV/ No UV': 16.04
Q8K4X7 Agpat4
  Log2( Mean 'UV/ No UV'): 4.25
  TMT Ratio Mean 'UV/ No UV': 18.96
Q8R5J9 Arl6ip5
  Log2( Mean 'UV/ No UV'): 4.56
  TMT Ratio Mean 'UV/ No UV': 23.65
Q9CXJ4 Abcb8
  Log2( Mean 'UV/ No UV'): 3.93
  TMT Ratio Mean 'UV/ No UV': 15.28
Q9CZS1 Aldh1b1
  Log2( Mean 'UV/ No UV'): 4.40
  TMT Ratio Mean 'UV/ No UV': 21.11
Q9CZT8 Rab3b
  Log2( Mean 'UV/ No UV'): 3.73
  TMT Ratio Mean 'UV/ No UV': 13.26
Q9D5T0 Atad1
  Log2( Mean 'UV/ No UV'): 3.65
  TMT Ratio Mean 'UV/ No UV': 12.57
Q9EP69 Sacm1l
  Log2( Mean 'UV/ No UV'): 4.04
  TMT Ratio Mean 'UV/ No UV': 16.45
Q9ER00 Stx12
  Log2( Mean 'UV/ No UV'): 3.85
  TMT Ratio Mean 'UV/ No UV': 14.40
Q9Z2I0 Letm1
  Log2( Mean 'UV/ No UV'): 4.32
  TMT Ratio Mean 'UV/ No UV': 19.93
Q80ZW2 Them6
  Log2( Mean 'UV/ No UV'): 4.50
  TMT Ratio Mean 'UV/ No UV': 22.62
Q99JY8 Ppap2b
  Log2( Mean 'UV/ No UV'): 4.16
  TMT Ratio Mean 'UV/ No UV': 17.86
Q00915 Rbp1
  Log2( Mean 'UV/ No UV'): 4.46
  TMT Ratio Mean 'UV/ No UV': 22.07
Q60771 Cldn11
  Log2( Mean 'UV/ No UV'): 4.48
  TMT Ratio Mean 'UV/ No UV': 22.33
[1]
  Log2( Mean 'UV/ No UV'): 3.89
  TMT Ratio Mean 'UV/ No UV': 14.80
[2]
  Log2( Mean 'UV/ No UV'): 3.55
  TMT Ratio Mean 'UV/ No UV': 11.67
[3]
  Log2( Mean 'UV/ No UV'): 3.94
  TMT Ratio Mean 'UV/ No UV': 15.34
[4]
  Log2( Mean 'UV/ No UV'): 4.02
  TMT Ratio Mean 'UV/ No UV': 16.25
[5]
  Log2( Mean 'UV/ No UV'): 4.31
  TMT Ratio Mean 'UV/ No UV': 19.87
[6]
  Log2( Mean 'UV/ No UV'): 4.62
  TMT Ratio Mean 'UV/ No UV': 24.62
[7]
  Log2( Mean 'UV/ No UV'): 3.89
  TMT Ratio Mean 'UV/ No UV': 14.81
[8]
  Log2( Mean 'UV/ No UV'): 3.59
  TMT Ratio Mean 'UV/ No UV': 12.05
[9]
  Log2( Mean 'UV/ No UV'): 3.68
  TMT Ratio Mean 'UV/ No UV': 12.78
[10]
  Log2( Mean 'UV/ No UV'): 4.27
  TMT Ratio Mean 'UV/ No UV': 19.35
[11]
  Log2( Mean 'UV/ No UV'): 3.50
  TMT Ratio Mean 'UV/ No UV': 11.31
[12]
  Log2( Mean 'UV/ No UV'): 4.57
  TMT Ratio Mean 'UV/ No UV': 23.78
Protein O35963 Ras-related protein Rab-33B (Rab33b)
  Log2( Mean 'UV/ No UV'): 4.02
